# Results published in ChEMBL document CHEMBL1201862, “PubChem BioAssay data set” (2004).
#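 Each compound was tested at five concentrations against cells in 96-well plates for 48 hours. Here, GI50 denotes the concentration required for 50% inhibition of growth.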 Active and inactive are the calls of the source. Rule as the data show it: active = GI50 up to about 1.1 µM and inactive = higher.
# Key:
# Assay in all cases: NCI anticancer screen, dose series, 48 h
# SK-MEL-2 = system: SK-MEL-2
# HCC 2998 = system: HCC 2998
# KM12 = system: KM12
# EKVX = system: EKVX
# OVCAR-3 = system: OVCAR-3
# 786-0 = system: 786-0
# SK-MEL-28 = system: SK-MEL-28
# UACC-257 = system: UACC-257
# LOX IMVI = system: LOX IMVI
# HOP-62 = system: HOP-62
# T47D = system: T47D
# NCI/ADR-RES = system: NCI/ADR-RES
# MDA-MB-435 = system: MDA-MB-435
# SF-539 = system: SF-539
# OVCAR-8 = system: OVCAR-8
# SN12C = system: SN12C
# NCI-H226 = system: NCI-H226
# PC-3 = system: PC-3
# SF-295 = system: SF-295
# HT-29 = system: HT-29
# HOP-92 = system: HOP-92
# ACHN = system: ACHN
# SK-OV-3 = system: SK-OV-3
# HL-60 = system: HL-60
# A498 = system: A498
# HCT-15 = system: HCT-15
# UO-31 = system: UO-31
# CAKI-1 = system: CAKI-1
# U-251 = system: U-251
# Malme-3M = system: Malme-3M
# A549 = system: A549
# SNB-75 = system: SNB-75
# MDA-N = system: MDA-N
# SNB-19 = system: SNB-19
# CCRF-CEM = system: CCRF-CEM
# SW-620 = system: SW-620
# HCT-116 = system: HCT-116
# OVCAR-4 = system: OVCAR-4
# UACC-62 = system: UACC-62
# M14 = system: M14
# NCI-H23 = system: NCI-H23
# MCF7 = system: MCF7
# RPMI-8226 = system: RPMI-8226
# SK-MEL-5 = system: SK-MEL-5
# MDA-MB-231 = system: MDA-MB-231
# SR = system: SR
# OVCAR-5 = system: OVCAR-5
# K562 = system: K562
# DU-145 = system: DU-145
# NCI-H522 = system: NCI-H522
# COLO 205 = system: COLO 205
# MOLT-4 = system: MOLT-4
# IGROV-1 = system: IGROV-1
# SF-268 = system: SF-268
structure (smiles),measurement,setting,value
Oc1ccc(/C=N/NC(=S)Nc2cccnc2)nc1,GI50,SK-MEL-2,7.08 µM (inactive)
same,GI50,HCC 2998,> 51.1 µM (inactive)
same,GI50,KM12,6.71 µM (inactive)
same,GI50,EKVX,12.6 µM (inactive)
same,GI50,OVCAR-3,1.07 µM (active)
same,GI50,786-0,8.43 µM (inactive)
same,GI50,SK-MEL-28,6.18 µM (inactive)
same,GI50,UACC-257,13.7 µM (inactive)
same,GI50,LOX IMVI,3.26 µM (inactive)
same,GI50,HOP-62,12 µM (inactive)
same,GI50,T47D,8.69 µM (inactive)
same,GI50,NCI/ADR-RES,2.46 µM (inactive)
same,GI50,MDA-MB-435,5.9 µM (inactive)
same,GI50,SF-539,4.49 µM (inactive)
same,GI50,OVCAR-8,2.79 µM (inactive)
same,GI50,SN12C,6.93 µM (inactive)
same,GI50,NCI-H226,33.3 µM (inactive)
same,GI50,PC-3,> 22 µM (inactive)
same,GI50,SF-295,19.9 µM (inactive)
same,GI50,HT-29,5.33 µM (inactive)
same,GI50,HOP-92,5.38 µM (inactive)
same,GI50,ACHN,4.76 µM (inactive)
same,GI50,SK-OV-3,8.99 µM (inactive)
same,GI50,HL-60,3.76 µM (inactive)
same,GI50,A498,33.7 µM (inactive)
same,GI50,HCT-15,5.27 µM
same,GI50,UO-31,2.78 µM (inactive)
same,GI50,CAKI-1,20.7 µM (inactive)
same,GI50,U-251,6.22 µM (inactive)
same,GI50,Malme-3M,2.07 µM (inactive)
same,GI50,A549,38.3 µM (inactive)
same,GI50,SNB-75,19.6 µM (inactive)
same,GI50,MDA-N,13.4 µM (inactive)
same,GI50,SNB-19,22.7 µM (inactive)
same,GI50,CCRF-CEM,3.27 µM (inactive)
same,GI50,SW-620,4.82 µM (inactive)
same,GI50,HCT-116,4.49 µM (inactive)
same,GI50,OVCAR-4,> 76.6 µM (inactive)
same,GI50,UACC-62,6.97 µM (inactive)
same,GI50,M14,6.1 µM (inactive)
same,GI50,NCI-H23,8.15 µM (inactive)
same,GI50,MCF7,7.89 µM (inactive)
same,GI50,RPMI-8226,16.7 µM (inactive)
same,GI50,SK-MEL-5,9.59 µM (inactive)
same,GI50,MDA-MB-231,2.32 µM (inactive)
same,GI50,SR,0.134 µM (active)
same,GI50,OVCAR-5,40.3 µM (inactive)
same,GI50,K562,3.99 µM (inactive)
same,GI50,DU-145,3.72 µM (inactive)
same,GI50,NCI-H522,1.97 µM (inactive)
same,GI50,COLO 205,3.98 µM (inactive)
same,GI50,MOLT-4,2.8 µM (inactive)
same,GI50,IGROV-1,14.7 µM (inactive)
same,GI50,SF-268,1.39 µM (inactive)
